Data on one compound can be found in patent US20250009695A1, “COMPOSITIONS AND METHODS FOR PROMOTING GLYCOGEN SYNTHASE ACTIVITY AND AUGMENTING GLYCOGEN STORAGE CAPABILITY” (NANJING NUTRABUILDING BIO-TECH CO., LTD., priority 2021, published 2025).

Assay [1] is described as follows: Effect of BAIBA on liver and skeletal muscle glycogen content in normal mice (ELISA kits). Particulars: oral gavage 2 weeks, compared to Exercise group; for glycogen levels in liver tissue (change, in words): FIG. 1; for glycogen levels in muscle tissue (change, in words): FIG. 3. The assay is classed as in vivo, C57 mice. The protocol:
(§1) SPF-grade male C57 mice (8 weeks old) were purchased from Nanjing Qinglongshan Laboratory Animal Breeding Center. Mice were housed individually in a steel cage in a room at 24° C. with a 12:12 h (Light:Dark) photoperiod and standard diet. Food and water were provided ad libitum. Forty mice were randomly divided into five groups. Control Group: Receiving neither exercise nor L-BAIBA treatment. Exercise Group: Receiving only exercise and no L-BAIBA treatment. BAIBA Group: Receiving only L-BAIBA treatment and no exercise. Pre-workout Group: Receiving L-BAIBA treatment before exercise. Post-workout Group: Receiving L-BAIBA treatment after exercise. Samples were administered orally (gavage volume was 0.1 mL/10 g per mouse) via a gavage tube for 2 weeks.
The exercise consisted of treadmill running at a speed of 3.0 m/min with no inclination of the treadmill. Mice were allowed to freely explore the treadmill until each mouse had explored its lane and the treadmill was turned on with a slow increase in the speed until animals begin running at set speed. During the first week of the treatment period, as an introduction the mice were forced to running exercise for 8 minutes. Subsequently, the exercise duration was increased to 9 minutes during the following week. The exercise duration was finally set to 10 minutes daily for the rest of weeks.
After 30 minutes of exercise on day 14th, mice were injected with 0.1 to 0.3 ml 1% thiopental sodium intraperitoneally in order to general anesthesia. The soleus of the hind limbs of mice and liver were taken to detect the content of glycogen contents and glycogen synthetase with ELISA Kits.
On the technique in general: ELISA stands for enzyme-linked immunosorbent assay.

A short description of assay [2]: Effect of oral BAIBA administration on liver and skeletal muscle glycogen levels in obese (HFD) mice. The assay is classed as in vivo. Particulars: for hepatic glycogen levels (change, in words) / muscle glycogen levels (change, in words): HFD mice, better than exercise alone; for Liver glycogen / Muscle glycogen: obese mice on HFD, oral, week 9-16, P < 0.05 vs Model; for Liver glycogen: main lobe of liver; for Muscle glycogen: soleus muscle. The source says: Post quarantine, animals were acclimatized for one week and subsequently the animals were randomized based on body weight stratification. Initially, mice were allocated broadly into two groups with one group receiving the Normal Diet (ND) representing normal subjects and the other receiving a defined High Fat Diet (HFD) representing obese subjects. The HFD was a defined lard-based diet procured from Research Diets, New Jersey, USA (Product No.—D12492, with 60 Kcal % from fat, 20 Kcal % from proteins, and 20 Kcal % from carbohydrates; Lot no. 20050105 and expiry date 30 Nov. 2020). The ND was a defined control diet procured from Hylasco Biotechnology Pvt. Ltd, manufactured by PMI Nutrition International (Batch no. MAY06202 and expiry date February 2021) containing similar nutrients as HFD but with 13 Kcal % from fat, 17 Kcal % from proteins, and […].
The mice in the respective groups were put on ND and HFD for 8 weeks starting at age of ˜8 weeks. Food was offered twice a week by replacing the left-over feed with fresh feed and total weekly feed consumption was calculated and expressed as g feed/day/animal. Bodyweight was recorded once a week. At the end of 8 weeks (Day 57), mean body weight was measured, and animals were randomized based on body weight stratification and grouped separately into respective ND and HFD groups shown in the following experimental design. After the feeding/induction period (Week 1 to 8), the treatment period was from Week 9 to Week 16. A total of 36 mice were randomly grouped into six groups with n=6 in each group. Control Group: Normal mice, maintained on normal diet for 8 weeks, receiving neither exercise nor L-BAIBA treatment. Model Group: Obese mice, maintained on HFD for 8 weeks, receiving neither exercise nor L-BAIBA treatment. Exercise Group: Obese mice, maintained on HFD for 8 weeks, receiving only exercise and no L-BAIBA treatment. BAIBA Group: Obese mice, maintained on HFD for 8 weeks, receiving only LBAIBA treatment and no exercise. Exercise+BAIBA Group: Obese mice, maintained on HFD for 8 weeks, receiving L-BAIBA treatment and exercise.
A regular treadmill (PowerMax) used by humans was availed for subjecting mice to daily exercise. A special lane box made of Perspex was used to fabricate the treadmill's running platform, forming a modified 6-lane rodent treadmill allowing 6 animals to run simultaneously. The mice in the specified groups were exercised daily throughout the treatment period (week 9-16). Exercise consisted of treadmill running at a speed 3.0 m/min with no inclination of the treadmill. Mice were allowed to freely explore the treadmill until each mouse had explored its lane and the treadmill was turned on with a slow increase in the speed until animals begin running at set speed. During the first week of the treatment period, as an introduction the mice were forced to running exercise for 8 minutes. Subsequently, the exercise duration was increased to 9 minutes during the following week. The exercise duration was finally set to 10 minutes daily for the rest of weeks. Exercise took place in a room separated from the actual housing room to which all mice were transferred and kept during the exercise procedures in order to minimize environmental confounders among the mice not subjected to the exercise protocol. […] Entire procedure was supervised by study personnel and no abnormal behavior of animals was observed. Forced treadmill exercise was carried out at preferred lux and noise free conditions.
After completion of 8 weeks of experimentation (at the end of treatment on the day 114), animals were euthanized using an overdose of isoflurane (20% v/v in propylene glycol in a glass vacuum desiccator). The whole soleus muscle tissues and a sample of the main lobe of the liver were used to measure glycogen content using a modified protocol described in Methods in Enzymology Vol. III (Colowick and Kaplan, 1957).

Assay [3] concerns glycogen synthetase. In words: Effect of BAIBA on muscle glycogen synthetase content in normal mice (ELISA kits). The assay is classed as in vivo, C57 mice. Particulars: L-BAIBA administration, oral gavage 2 weeks, soleus, FIG. 4. The protocol: as §1
The exercise consisted of treadmill running at a speed of 3.0 m/min with no inclination of the treadmill. Mice were allowed to freely explore the treadmill until each mouse had explored its lane and the treadmill was turned on with a slow increase in the speed until animals begin running at set speed. During the first week of the treatment period, as an introduction the mice were forced to running exercise for 8 minutes. Subsequently, the exercise duration was increased to 9 minutes during the following week. The exercise duration was finally set to 10 minutes daily for the rest of weeks. […]

Setting [4] is: Post-workout Group (L-BAIBA after exercise).
[5] abbreviates: Pre-workout Group (L-BAIBA before exercise).
[6] abbreviates: combination of L-BAIBA and exercise.
Setting [7] is: L-BAIBA treatment and daily treadmill exercise.
[8] abbreviates: L-BAIBA treatment only, no exercise.

Regarding `CC(CN)C(=O)O` (stereo not drawn) [BAIBA, β-aminoisobutyric acid], in assay [1] (setting [4]), the “glycogen levels in liver tissue (change, in words)” value was “increase” and the “glycogen levels in muscle tissue (change, in words)” value was “increase”. For the same compound, in assay [1] (setting [5]), the “glycogen levels in liver tissue (change, in words)” value was “increase” and the “glycogen levels in muscle tissue (change, in words)” value is “increase”. In assay [2] (L-BAIBA administration alone), the “hepatic glycogen levels (change, in words)” value is listed as “significant increase” and the “muscle glycogen levels (change, in words)” value is recorded as “significant increase”. In assay [2] (setting [6]), the “hepatic glycogen levels (change, in words)” value is “significant increase” and the “muscle glycogen levels (change, in words)” value is reported as “significant increase”. In assay [2] (setting [7]), this compound gave a Liver glycogen of 9.95 ± 0.61 mg/g tissue and a Muscle glycogen of 0.29 ± 0.08 mg/g tissue. In assay [2] (setting [8]), this compound returned a Liver glycogen of 9.66 ± 1.19 mg/g tissue and a Muscle glycogen of 0.31 ± 0.06 mg/g tissue. Besides, the “muscle glycogen synthetase content (change, in words)” value in assay [3] was “significant increase”.
